One test deals with PKA (Homo sapiens, UniProt P17612). In words: PKA 33P kinase assay. The note with it: read-out: PKA activity as percentage of control without inhibitor; for remaining activity at 1 µM: inhibitor 1 μM; for remaining activity at 10 µM: inhibitor 10 μM. Type of test: biochemical. The method, then:
(§1) All assays (25.5 μl) were carried out at room temperature (21° C.) and were linear with respect to time and enzyme concentrations under the conditions used. Assays were performed for 30 minutes except assays for LCK and PKB which were performed for 15 minutes using Multidrop Micro reagent dispensers (Thermo Electron Corporation, Waltham, Mass. 02454, USA) in a 96-well format. The concentration of […] [γ-^33P] ATP (800 cpm/pmol) in the assays was one of three concentrations (5, 20 or 50 μM) in order to be at or below Km for ATP for the enzyme. Assays were initiated with MgATP and stopped by addition of 5 μl of 0.5M orthophosphoric acid. Assays were then harvested onto P81 filterplates using a unifilter harvester (PerkinElmer, Boston, Mass. 02118, USA), with a wash buffer of 50 mM orthophosphoric acid. Filterplates were then air dried overnight. 10 μl of Microscint O was added per well prior to counting for radioactivity.
MKK1, JNK/SAPK1c, SAPK2a/p38, SAPK2b/p38β2, SAPK3/p38γ, SAPK4/p38δ, MAPK2/ERK2, MAPKAP-K1β, MAPKAP-K2, MSK1, PRAK, PKA, PKCα, PDK1, SGK, p70S6K, GSK3β, ROCK-II, PRK2, AMPK, CHK1, CHK2, CK2, PHK, LCK, were assayed according to Davies et al., (Davies, S. P., Reddy, H., Caivano, M. and Cohen, P. Biochem. J. 351, 95-105, 2000.
CSK and CDK2/cyclinA, were assayed according to Bain et al. (Bain J, McLauchlan H, Elliott M, Cohen P. Biochem J. 371, 199-204, 2003., except that ATP concentrations were either 5, 20 or 50 micromolar so that they were at or below the Km for ATP. The ATP concentrations used were as follows, 5 μM for assays of MKK1, SAPK3, SAPK4, GSK3β, PRK2 CK2 20 μm for assays of JNK, SAPK2β, MAPKAP-K2, MSK1, PRAK, PKA, […], PDK1, SGK, p70S6K, ROCK-II, CHK1, CHK2, CSK, CDK2, and 50 μM for assays of SAPK2a, MAPK2/ERK2, AMPK, LCK, PHK and MAPKAP-K1β.

The target of another test is T1, PKD1 (Homo sapiens, UniProt Q15139).
T1 sequence (Q15139 1-912): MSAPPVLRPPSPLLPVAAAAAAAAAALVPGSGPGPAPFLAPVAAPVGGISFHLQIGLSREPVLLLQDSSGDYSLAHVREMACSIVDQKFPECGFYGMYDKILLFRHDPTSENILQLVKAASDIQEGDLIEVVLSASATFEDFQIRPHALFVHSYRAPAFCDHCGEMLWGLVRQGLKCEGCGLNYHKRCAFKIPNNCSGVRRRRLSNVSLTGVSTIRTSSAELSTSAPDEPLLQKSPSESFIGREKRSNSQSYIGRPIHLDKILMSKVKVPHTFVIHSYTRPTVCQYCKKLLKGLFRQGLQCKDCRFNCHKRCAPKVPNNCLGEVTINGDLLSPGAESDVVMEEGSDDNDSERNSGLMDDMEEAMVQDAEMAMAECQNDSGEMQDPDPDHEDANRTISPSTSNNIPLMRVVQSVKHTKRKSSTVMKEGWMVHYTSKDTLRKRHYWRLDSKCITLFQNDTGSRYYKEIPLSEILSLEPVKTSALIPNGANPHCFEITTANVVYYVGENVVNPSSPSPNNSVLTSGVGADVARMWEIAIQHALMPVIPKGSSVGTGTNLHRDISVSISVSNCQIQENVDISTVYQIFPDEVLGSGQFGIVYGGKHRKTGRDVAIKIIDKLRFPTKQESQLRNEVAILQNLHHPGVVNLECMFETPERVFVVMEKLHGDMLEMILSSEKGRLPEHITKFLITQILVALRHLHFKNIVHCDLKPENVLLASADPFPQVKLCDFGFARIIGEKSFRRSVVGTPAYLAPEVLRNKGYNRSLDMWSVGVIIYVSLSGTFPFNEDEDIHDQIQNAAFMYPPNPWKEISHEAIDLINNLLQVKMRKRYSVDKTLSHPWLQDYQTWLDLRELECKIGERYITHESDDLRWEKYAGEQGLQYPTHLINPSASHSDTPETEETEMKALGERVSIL
Description: PKD1 33P kinase assay. The note with it: read-out: PKD1 activity as percentage of control without inhibitor. Format: biochemical. How it is done: as §1
The following kinases were assayed against the substrates indicated. Aurora B was assayed against the substrate peptide […] (300 μM), ERK8 and MST-2 were both assayed against MBP (0.33 mg/ml). IKKβ was assayed against the substrate peptide […] (300 μM), JNK3 was assayed against 3 μM ATF2[19-96]. MAPKAP-K3 and PKD1 were both assayed against […] (30 μM), MARK3 was assayed against CHKtide ([…]) substrate peptide (300 μM). MNK1 and MNK2 were both assayed against eIF4E protein (0.5 mg/ml). NEK7 was assayed against […] (300 μM), PIM2 was assayed against […] (300 μM), ΔPH PKBβ-S474D was assayed against Crosstide (30 μM), PLK1 was assayed against […] (300 μM). PRK2 was assayed against Long S6 peptide, […] (30 μM), RSK2 was assayed against […] (30 μM), SRC was assayed against cdc2 peptide, […], (300 μM) and SRPK1 was assayed against peptide […] (300 μM). All enzymes were diluted in 50 mM Tris/HCl pH 7.5, 0.1 mM EGTA, 1 mg/ml BSA, 0.1% β-mercaptoethanol buffer and assayed in an incubation containing 50 mM Tris/HCl pH7.5, 0.1 mM EGTA, 0.1% β-mercaptoethanol, CAMK-1 (5-20 mU) diluted in 50 mM Tris/HCl pH 7.5, 0.1 mM EGTA, 1 mg/ml BSA, 0.1% β-mercaptoethanol is assayed against substrate peptide […] in an incubation containing 50 mM Tris/HCl pH 7.5, 0.1 mM EGTA, 0.5 mM CaCl2, 0.3 μM calmodulin, 0.1% β-mereaptoethanol, 300 μM substrate peptide, 10 mM magnesium acetate and 0.05 mM [^33P-γ-ATP] (500-1000 cpm/pmole). EF2K (5-20 mU) diluted in 50 mM Hepes pH 6.6, 0.1% β-mercaptoethanol, 1 mg/ml BSA is assayed against a substrate peptide […] in an incubation containing 50 mM Hepes pH 6.6, 0.2 mM CaCl2, 0.3 μM Calmodulin, 0.05% b-mercaptoethanol, 300 μM substrate peptide, 10 mM magnesium acetate and 0.05 mM [^33P-γ-ATP] (500-1000 cpm/pmole).

Where two headings read alike, the source gives them in different places.

`COc1ccc2c(c1)[nH]c1c(C)nccc12` [Harmine]: the remaining activity at 1 µM at PKA came to 82%; on PKD1 it was 86%. The figures for the remaining activity at 10 µM at PKA and on PKD1 were 92% and 53%, respectively.

Take `CC1=NCCc2c1[nH]c1cc(O)ccc21` [Harmalol]: the remaining activity at 1 µM came to 90% at PKA and 75% at PKD1 (inhibitor 1 μM). The remaining activity at 10 µM is 75% at PKA and 21% on PKD1 (inhibitor 10 μM).

Take `COc1ccc2c3c([nH]c2c1)C(C)=NCC3` [Harmaline]: the remaining activity at 1 µM at PKA was 70%; on PKD1 (inhibitor 1 μM), 99%. Also, the results for the remaining activity at 10 µM at PKA and at PKD1 (inhibitor 10 μM) were 86% and 101%, respectively.

These data come from patent US20100063085A1, “METHOD OF TREATING LEARNING IMPAIRMENT IN DOWN'S SYNDROME SUBJECTS” (University Court of The University of Dundee, priority 2008, published 2010).
